Where two headings read alike, the source gives them in different places.
Columns and labels:
[1] = Population pharmacokinetic (PopPK) model of ilaprazole, intravenous infusion, pooled data of 4 phase I and 1 phase IIa trials; assay type: in vivo, human; design: Disease status effect on Vp (Disease status = 1): scale not given here; key to ω^2 Vp, inter-individual variability / ω^2 CL, inter-individual variability: variance ω^2 of log-normal (exponential) inter-individual random effect η
Description: Data used to construct the PopPK model in current study were collected from 5 clinical trials of ilaprazole injection, including 4 phase I (No. CTR20132848, No. CTR20140147, No. CTR20150686, No. CTR20150685) clinical trials in healthy subjects, and 1 phase IIa (No. CTR20132846) clinical trial in patients with duodenal ulcer ([Wang et al., 2016a]; [Wang et al., 2016b]; [Wang et al., 2019]). All above studies included in this analysis were reviewed and approved by the Institutional Ethics Committee, registered in the China Clinical Trials Registry Center (chinadrugtrials.org.cn), and conducted in strict adherence to Good Clinical Practice and the Declaration of Helsinki.
The single-dose phase I study (No. CTR20132848) was a randomized, open, four-cycle crossover trial in which 16 healthy subjects were randomized into four groups and were given either oral control drug or intravenous infusion of 5, 10 or 20 mg of ilaprazole during different cycles, after a 1-week washout period, and then separately after crossover. In the multiple-dose phase I study (No. CTR20140147), 10 healthy subjects received a 5-day continuous intravenous infusion of 10 mg ilaprazole once daily. The next studies (No. CTR20150686, No. CTR20150685) were conducted in healthy subjects with a single 30 mg intravenous infusion of ilaprazole, and a 20 mg loading dose combined with a 10 mg maintenance dose for a total of 3 days of intravenous infusion of ilaprazole. In the phase IIa study (No. CTR20132846), 20 patients with duodenal ulcer were randomized to receive a 20 mg loading dose plus a 10 mg maintenance dose of intravenous infusion of ilaprazole once daily or a positive control drug.
Blood samples were collected for clinical pharmacokinetic analysis of ilaprazole in all studies, and the specific sampling designs are summarized in Table 1. To determine the concentration of ilaprazole in human plasma, a validated UPLC-MS/MS method was utilized, with the samples being processed by protein precipitation ([Wang et al., 2012]). The analytes were chromatographed on Acquity UPLC BEH C18 column (waters, MA, United States), and the detection was performed on Xevo-TQS tandem mass spectrometer coupled with an electro-spray ionization (ESI) source (waters, MA, United States). It is notable that ilaprazole concentration remained linear in the range of 1–1,000 ng/mL, with the lower limit of quantification of 1 ng/mL. After excluding 5 concentrations below the limit of quantification (BLQ) and 7 concentrations not detected (ND), a total of 1,560 plasma concentration from 58 subjects who received intravenous infusion of ilaprazole were included in the final PopPK analysis.
Based on the pooled data from the clinical studies mentioned above, the PopPK model for ilaprazole was constructed using non-linear mixed-effects model of Phoenix NLME (version 8.3; Certara Inc, Princeton, NJ, United States). We developed the PopPK model using the first-order conditional estimation extended least squares (FOCE-ELS) method. The specific modeling steps are as follows.
For the basic structural model, one-compartment and two-compartment models were tested to fit the data set according to the plasma concentration-time profile of ilaprazole, plotted on a semi-logarithmic scale. Based on the fact that the distribution of the population pharmacokinetic (PK) parameters essentially conforms to a log-normal distribution, the inter-individual variability in pharmacokinetic parameters was estimated by an exponential model (Eq. 1). Pik=Ppoppk*exp ηik (1)
In Eq. 1, Pik represents the kth pharmacokinetic parameter for the ith individual, Ppopk represents the typical value of the parameter in population, and ηik depicts the deviation between the kth pharmacokinetic parameter of the ith individual and the typical value of the population (i.e., random effect), It is assumed that η follows a normal distribution centered at 0 with variance ω^2. […]

[2] = design: method as in Sachs et al., 2006; Shin et al., 2014; conditions: ref Sachs et al., 2006; Shin et al., 2014; cited from earlier work
[3] = design: method as in Shen et al., 2020; Jiang et al., 2021; conditions: rats; intravenous injection of 14C-ilaprazole; ref Shen et al., 2020; Jiang et al., 2021; cited from earlier work
[4] = cited from earlier work
[5] = design: method as in Wang et al., 2019; conditions: ref Wang et al., 2019, cited from earlier work
[6] = cited from earlier work; remark: listed apart in the source

COc1ccnc(C[S+]([O-])c2nc3cc(-n4cccc4)ccc3[nH]2)c1C (centres unmarked) [ilaprazole, 2-[[(4-methoxy-3-methyl)-2-pyridinyl]methyl-sulfinyl]-5-(1H-pyrol-1-yl)-1H-benzimidazole]
CL, clearance of central compartment ([1]; bootstrap median (n = 1,000)): 3.394 L/h
V, volume of central compartment ([1]; bootstrap median (n = 1,000)): 6.819 L
Vp, volume of peripheral compartment ([1]; bootstrap median (n = 1,000)): 5.480 L
WT effect on Vp ([1]; bootstrap median (n = 1,000)): 1.573
σmult, residual variability ([1]; bootstrap median (n = 1,000)): 0.182
ω^2 CL, inter-individual variability ([1]; bootstrap median (n = 1,000)): 0.057
ω^2 V, inter-individual variability ([1]; bootstrap median (n = 1,000)): 0.013
ω^2 Vp, inter-individual variability ([1]; bootstrap median (n = 1,000)): 0.033
Disease status effect on Vp (Disease status = 1) ([1]; bootstrap median (n = 1,000), duodenal ulcer): 0.356
clearance ([1]; both sexes, human, plasma, intravenous, final model estimate, read-out: CL, clearance of central compartment, typical value (converted)): 56.6 mL/min
ω^2 CL, inter-individual variability ([1]; final model estimate): 0.059
ω^2 V, inter-individual variability ([1]; final model estimate): 0.013
ω^2 Vp, inter-individual variability ([1]; final model estimate): 0.032
Disease status effect on Vp (Disease status = 1) ([1]; final model estimate, Disease status = 1 for duodenal ulcer): 0.356
V, volume of central compartment, typical value ([1]; final model estimate, IV infusion, Chinese healthy subjects and duodenal ulcer patients): 6.795 L
Vp, volume of peripheral compartment, typical value ([1]; final model estimate, median weight 60.6 kg): 5.544 L
σmult, residual variability ([1]; final model estimate, multiplicative residual error): 0.184
WT effect on Vp ([1]; final model estimate, power exponent on Weight/60.6): 1.545
half-life (t1/2) [2]: 4.7 to 5.3 h
radioactive signal in tissues/organs [3]: can still be observed in the stomach after 24 h
LogP [4]: 3.04
AUC0‐∞ ([5]; duodenal ulcers patients): 4900 ng·h/mL
Cmax ([5]; duodenal ulcers patients): 1,540 ng/mL
AUC0‐∞ ([5]; healthy subjects): 7400 ng·h/mL
Cmax ([5]; healthy subjects): 1871.3 ng/mL
plasma protein binding capacity [6]: more than 97%

Reference: publication PMC10805834, “Population pharmacokinetic modeling of ilaprazole in healthy subjects and patients with duodenal ulcer in China” (Frontiers in Pharmacology, 2024)
